Patent US11202789B2, “Method of treating glycogen storage disease” (Viking Therapeutics, Inc., priority 2016, dated 2021)

Test system: male ob/ob mice
Test: 9-week efficacy and safety study in male ob/ob mice
Type: in vivo
Conditions: T3 100 nmole/kg/day SC
Method: The objective of this study was to evaluate the efficacy and safety of Compound 2 treatment at doses of 3, 10, and 30 mg/kg/day for 9 weeks in male ob/ob mice. 3,3′,5-Triiodo-L-thyronine (T3) was used as a comparator in this study.
Methods: Seventy-eight adult male ob/ob mice were assigned to six different treatment groups (n=6-24/group). Animals were dosed daily with either vehicle [1% carboxymethylcellulose (CMC) in water, PO], T3 [(100 nmole/kg/day in aqueous solution, subcutaneous (SC)], or Compound 2 [3, 10 or 30 mg/kg/day in 1% CMC, PO]. Blood glucose and plasma cholesterol were measured weekly in all animals. Subsets of animals in the vehicle-treated and 30 mg/kg/day Compound 2-treated groups were sacrificed after 3, 6 and 9 weeks of treatment to analyze the temporal effects of Compound 2 on liver weight and liver triglyceride levels. Liver triglyceride levels, liver glycogen content, heart, liver and epididymal fat pad weights, and plasma clinical chemistry parameters were measured at sacrifice.

Question: What does the source list for N[C@@H](Cc1cc(I)c(Oc2ccc(O)c(I)c2)c(I)c1)C(=O)O [Compound T3, 3,3′,5-Triiodo-L-thyronine, reference compound]?
Answer: ALT levels: decreased; increased plasma triglyceride levels: ~56%; plasma albumin levels: decreased; plasma calcium levels: decreased; total plasma protein levels: decreased; liver weight (9 weeks): lower; blood glucose levels (all time points, vs vehicle): similar; total plasma cholesterol lower (at 9 weeks, vs vehicle): ~66%; terminal liver glycogen levels (vs vehicle): similar; terminal liver triglyceride levels (vs vehicle): similar
